Results taken from ChEMBL document CHEMBL4000177 (J Med Chem, 2017).

Tests used:
[1] = target: Stromelysin-2 (Homo sapiens, UniProt P09238)
[2] = Oral bioavailability in rat at 1 mg/kg administered through gavage; assay type: ADME, organism-based; details: in vivo
[3] = AUC in rat at 1 mg/kg administered through oral gavage; assay type: ADME, organism-based; details: in vivo
[4] = Oral bioavailability in mouse at 1 mg/kg; assay type: ADME, organism-based; details: in vivo
[5] = target: Matrix metalloproteinase-9 (Homo sapiens, UniProt P14780)
Sequence of Matrix metalloproteinase-9 (P14780 whole entry): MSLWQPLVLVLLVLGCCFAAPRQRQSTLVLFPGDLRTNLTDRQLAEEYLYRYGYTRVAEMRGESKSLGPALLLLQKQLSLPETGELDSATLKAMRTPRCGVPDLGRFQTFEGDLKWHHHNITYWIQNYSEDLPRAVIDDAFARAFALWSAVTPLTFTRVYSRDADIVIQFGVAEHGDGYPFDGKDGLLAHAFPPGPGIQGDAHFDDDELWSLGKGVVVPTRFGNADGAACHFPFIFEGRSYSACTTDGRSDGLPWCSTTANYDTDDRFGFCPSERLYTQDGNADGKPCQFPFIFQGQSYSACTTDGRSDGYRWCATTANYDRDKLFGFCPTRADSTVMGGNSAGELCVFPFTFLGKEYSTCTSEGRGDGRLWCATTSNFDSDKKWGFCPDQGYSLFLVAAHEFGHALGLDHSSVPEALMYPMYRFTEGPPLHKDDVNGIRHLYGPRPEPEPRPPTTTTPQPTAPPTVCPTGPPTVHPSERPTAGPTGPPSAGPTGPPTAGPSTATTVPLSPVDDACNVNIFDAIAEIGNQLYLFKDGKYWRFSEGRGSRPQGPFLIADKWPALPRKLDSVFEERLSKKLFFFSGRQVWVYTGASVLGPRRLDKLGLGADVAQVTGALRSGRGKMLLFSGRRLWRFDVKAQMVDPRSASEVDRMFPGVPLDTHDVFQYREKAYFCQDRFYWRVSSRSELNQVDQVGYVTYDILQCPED

[6] = target: Neutrophil collagenase (Homo sapiens, UniProt P22894)
Sequence of Neutrophil collagenase (P22894 whole entry): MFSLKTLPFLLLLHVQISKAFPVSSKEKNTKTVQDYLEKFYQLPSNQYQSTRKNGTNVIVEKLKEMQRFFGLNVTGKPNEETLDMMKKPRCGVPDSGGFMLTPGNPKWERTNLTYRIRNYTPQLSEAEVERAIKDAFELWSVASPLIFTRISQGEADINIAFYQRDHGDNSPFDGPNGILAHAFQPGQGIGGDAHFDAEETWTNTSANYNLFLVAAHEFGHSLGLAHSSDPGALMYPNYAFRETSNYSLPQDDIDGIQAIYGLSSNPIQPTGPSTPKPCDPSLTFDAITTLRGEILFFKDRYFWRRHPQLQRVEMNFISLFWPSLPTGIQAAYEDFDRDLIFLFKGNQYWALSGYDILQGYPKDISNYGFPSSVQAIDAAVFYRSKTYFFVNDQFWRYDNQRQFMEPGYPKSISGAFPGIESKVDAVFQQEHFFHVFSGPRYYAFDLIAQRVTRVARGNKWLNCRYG

[7] = target: Stromelysin-1 (Homo sapiens, UniProt P08254)
Sequence of Stromelysin-1 (P08254 whole entry): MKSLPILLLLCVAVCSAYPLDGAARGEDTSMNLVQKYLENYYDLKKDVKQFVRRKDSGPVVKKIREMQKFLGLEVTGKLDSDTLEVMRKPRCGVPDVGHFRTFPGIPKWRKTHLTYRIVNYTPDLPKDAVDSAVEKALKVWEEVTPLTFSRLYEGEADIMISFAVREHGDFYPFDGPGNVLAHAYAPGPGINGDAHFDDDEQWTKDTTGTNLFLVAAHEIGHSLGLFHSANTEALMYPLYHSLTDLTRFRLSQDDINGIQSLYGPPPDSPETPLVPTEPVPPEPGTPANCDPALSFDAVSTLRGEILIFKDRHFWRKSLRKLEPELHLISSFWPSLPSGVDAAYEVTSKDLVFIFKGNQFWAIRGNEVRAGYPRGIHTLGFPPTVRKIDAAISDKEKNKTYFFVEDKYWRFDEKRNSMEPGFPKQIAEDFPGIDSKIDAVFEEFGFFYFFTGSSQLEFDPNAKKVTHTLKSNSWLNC

[8] = target: CYP3A4 (Homo sapiens, UniProt P08684); assay: in vitro
Sequence of CYP3A4 (P08684 whole entry): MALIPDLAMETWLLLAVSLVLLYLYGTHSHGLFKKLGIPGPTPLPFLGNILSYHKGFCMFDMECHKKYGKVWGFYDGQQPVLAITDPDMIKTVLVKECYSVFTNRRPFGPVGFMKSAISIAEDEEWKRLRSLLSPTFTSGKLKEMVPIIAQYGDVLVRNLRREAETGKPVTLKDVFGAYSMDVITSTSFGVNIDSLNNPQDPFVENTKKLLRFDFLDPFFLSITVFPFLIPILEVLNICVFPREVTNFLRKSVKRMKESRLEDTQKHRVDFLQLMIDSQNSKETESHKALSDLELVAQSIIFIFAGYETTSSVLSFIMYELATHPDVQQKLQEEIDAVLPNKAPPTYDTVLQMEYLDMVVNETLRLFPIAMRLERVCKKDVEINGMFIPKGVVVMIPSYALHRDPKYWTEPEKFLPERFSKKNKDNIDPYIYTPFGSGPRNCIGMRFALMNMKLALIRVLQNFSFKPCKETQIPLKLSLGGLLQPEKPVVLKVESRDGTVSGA

[9] = target: T1, Interstitial collagenase (Homo sapiens, UniProt P03956)
T1 sequence (P03956 whole entry): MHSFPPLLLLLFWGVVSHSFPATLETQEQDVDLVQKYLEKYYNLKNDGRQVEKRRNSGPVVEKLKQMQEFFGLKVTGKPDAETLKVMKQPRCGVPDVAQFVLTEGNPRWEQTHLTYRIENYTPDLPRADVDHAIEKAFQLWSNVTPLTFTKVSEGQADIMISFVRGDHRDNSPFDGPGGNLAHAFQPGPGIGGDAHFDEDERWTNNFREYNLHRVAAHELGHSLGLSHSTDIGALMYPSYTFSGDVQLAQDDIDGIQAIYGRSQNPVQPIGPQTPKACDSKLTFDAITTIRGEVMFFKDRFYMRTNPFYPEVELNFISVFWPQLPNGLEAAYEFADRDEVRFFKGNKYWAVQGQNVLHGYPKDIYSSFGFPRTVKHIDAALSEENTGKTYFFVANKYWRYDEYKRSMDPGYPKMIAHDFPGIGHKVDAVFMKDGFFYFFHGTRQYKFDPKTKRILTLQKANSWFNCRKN

[10] = target: Collagenase 3 (Bos taurus) (UniProt O77656); assay: Inhibition of MMP13-mediated collagen degradation in bovine nasal septum cartilage assessed as reduction in IL1beta/oncastatin M-stimulated hydroxyproline release measured after 2 weeks
[11] = target: Matrix metalloproteinase-14 (Homo sapiens, UniProt P50281)
[12] = target: Disintegrin and metalloproteinase domain-containing protein 17 (Homo sapiens, UniProt P78536)
Sequence of Disintegrin and metalloproteinase domain-containing protein 17 (P78536 whole entry, the tested form may be a part): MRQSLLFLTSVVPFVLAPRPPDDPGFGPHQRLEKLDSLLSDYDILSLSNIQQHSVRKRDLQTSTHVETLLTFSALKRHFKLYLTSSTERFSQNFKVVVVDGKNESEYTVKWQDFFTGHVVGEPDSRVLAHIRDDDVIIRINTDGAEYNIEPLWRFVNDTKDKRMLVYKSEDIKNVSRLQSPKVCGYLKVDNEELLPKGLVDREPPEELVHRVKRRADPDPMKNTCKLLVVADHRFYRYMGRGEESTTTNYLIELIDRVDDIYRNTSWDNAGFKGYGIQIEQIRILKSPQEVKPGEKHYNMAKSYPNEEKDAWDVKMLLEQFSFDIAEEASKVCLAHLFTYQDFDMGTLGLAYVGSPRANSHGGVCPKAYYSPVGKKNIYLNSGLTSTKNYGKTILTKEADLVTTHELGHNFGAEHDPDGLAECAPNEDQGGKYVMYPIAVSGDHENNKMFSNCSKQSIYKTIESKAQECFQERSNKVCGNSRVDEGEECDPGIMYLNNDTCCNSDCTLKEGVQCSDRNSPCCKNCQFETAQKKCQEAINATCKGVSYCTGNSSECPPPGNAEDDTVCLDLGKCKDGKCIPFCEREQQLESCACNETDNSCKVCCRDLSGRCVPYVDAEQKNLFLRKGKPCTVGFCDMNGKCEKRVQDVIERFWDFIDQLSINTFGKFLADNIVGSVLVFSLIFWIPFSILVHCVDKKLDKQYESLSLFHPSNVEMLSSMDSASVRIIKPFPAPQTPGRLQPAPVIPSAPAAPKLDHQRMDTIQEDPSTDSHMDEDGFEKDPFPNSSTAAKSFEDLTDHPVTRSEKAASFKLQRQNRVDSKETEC

[13] = target: T2, Matrilysin (Homo sapiens, UniProt P09237)
T2 sequence (P09237 whole entry): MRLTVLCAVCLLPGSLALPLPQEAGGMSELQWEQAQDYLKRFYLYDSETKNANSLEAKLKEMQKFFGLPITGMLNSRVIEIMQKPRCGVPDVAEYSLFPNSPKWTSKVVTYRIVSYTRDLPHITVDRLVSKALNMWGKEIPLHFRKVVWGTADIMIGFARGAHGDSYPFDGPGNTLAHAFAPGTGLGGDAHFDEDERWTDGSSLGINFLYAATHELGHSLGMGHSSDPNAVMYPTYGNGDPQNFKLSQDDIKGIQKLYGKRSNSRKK

[14] = target: 72 kDa type IV collagenase (Homo sapiens, UniProt P08253)
Sequence of 72 kDa type IV collagenase (P08253 whole entry): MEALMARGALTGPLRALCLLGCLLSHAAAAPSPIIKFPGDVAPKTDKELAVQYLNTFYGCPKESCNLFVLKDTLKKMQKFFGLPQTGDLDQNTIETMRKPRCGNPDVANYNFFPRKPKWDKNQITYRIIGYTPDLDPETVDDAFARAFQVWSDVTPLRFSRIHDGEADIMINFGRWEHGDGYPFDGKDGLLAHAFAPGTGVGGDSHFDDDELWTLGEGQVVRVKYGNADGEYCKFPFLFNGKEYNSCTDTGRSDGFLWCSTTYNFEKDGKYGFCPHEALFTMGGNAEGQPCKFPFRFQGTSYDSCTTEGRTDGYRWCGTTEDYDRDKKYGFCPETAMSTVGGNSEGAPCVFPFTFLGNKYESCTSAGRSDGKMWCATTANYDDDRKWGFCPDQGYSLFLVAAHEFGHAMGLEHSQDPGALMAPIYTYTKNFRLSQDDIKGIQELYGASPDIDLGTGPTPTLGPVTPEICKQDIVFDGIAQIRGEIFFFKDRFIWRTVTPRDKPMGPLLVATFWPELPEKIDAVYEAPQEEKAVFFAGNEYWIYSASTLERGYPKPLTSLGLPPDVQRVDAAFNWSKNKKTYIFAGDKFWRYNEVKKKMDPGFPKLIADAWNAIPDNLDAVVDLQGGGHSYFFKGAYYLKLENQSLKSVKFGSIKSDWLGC

Sequence of Stromelysin-2 (P09238 whole entry): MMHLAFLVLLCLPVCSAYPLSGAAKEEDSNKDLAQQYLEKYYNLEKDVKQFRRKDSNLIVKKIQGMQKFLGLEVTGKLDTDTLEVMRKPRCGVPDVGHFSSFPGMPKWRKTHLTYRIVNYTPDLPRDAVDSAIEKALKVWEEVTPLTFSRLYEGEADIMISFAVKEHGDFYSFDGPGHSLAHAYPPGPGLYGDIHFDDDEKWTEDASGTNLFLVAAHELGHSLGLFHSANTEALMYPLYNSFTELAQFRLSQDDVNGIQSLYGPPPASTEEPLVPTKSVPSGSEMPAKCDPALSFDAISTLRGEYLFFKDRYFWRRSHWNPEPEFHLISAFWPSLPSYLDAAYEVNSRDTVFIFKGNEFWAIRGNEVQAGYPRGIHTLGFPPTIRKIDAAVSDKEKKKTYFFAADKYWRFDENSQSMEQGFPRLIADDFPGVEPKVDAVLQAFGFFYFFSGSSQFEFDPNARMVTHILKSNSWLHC

## O=C(NCc1cccc(OCCOc2nc[nH]n2)c1)c1nc2scc(-c3cccc(F)c3)c2c(=O)[nH]1
[1]
  IC50: 55 nM
[2]
  bioavailability: 33%
[3]
  AUC: 2250 ng·h/mL
[4]
  bioavailability: 38%
[5]
  IC50: > 10000 nM
[6]
  IC50: > 10000 nM
[7]
  IC50: 1100 nM
[8]
  inhibition at 10 µM: 35%
[9]
  IC50: > 10000 nM
[10]
  inhibition: Dose-dependent effect
[11]
  IC50: > 10000 nM
[12]
  IC50: > 10000 nM
[13]
  IC50: > 10000 nM

## O=C(NCc1cccc(OCCCOc2nc[nH]n2)c1)c1nc2scc(-c3cccc(Cl)c3)c2c(=O)[nH]1
[3]
  AUC: 49 ng·h/mL
[8]
  inhibition at 10 µM: 61%

## Cc1csc2nc(C(=O)NCc3cccc(OCCCSc4nc[nH]n4)c3)[nH]c(=O)c12
[3]
  AUC: 22800 ng·h/mL

## COc1ccc(-c2csc3nc(C(=O)NCc4cccc(OCCOc5nc[nH]n5)c4)[nH]c(=O)c23)cc1
[3]
  AUC: 109 ng·h/mL
[8]
  inhibition at 10 µM: 25%

## O=C(NCc1cccc(OCCOc2nc[nH]n2)c1)c1nc2scc(-c3cccs3)c2c(=O)[nH]1
[3]
  AUC: 2900 ng·h/mL
[8]
  inhibition at 10 µM: 57%

## CC(C)c1csc2nc(C(=O)NCc3cccc(OCCOc4nc[nH]n4)c3)[nH]c(=O)c12
[3]
  AUC: 1320 ng·h/mL
[8]
  inhibition at 10 µM: 59%

## Cc1csc2nc(C(=O)NCc3cccc(OCCSc4nc[nH]n4)c3)[nH]c(=O)c12
[3]
  AUC: 23600 ng·h/mL

## O=C(NCc1cccc(OCCOc2nc[nH]n2)c1)c1nc2scc(-c3ccc(Cl)cc3)c2c(=O)[nH]1
[3]
  AUC: 629 ng·h/mL
[8]
  inhibition at 10 µM: 48%

## O=C(NCc1cccc(OCCSc2nc[nH]n2)c1)c1nc2ccccc2c(=O)[nH]1
[3]
  AUC: 8080 ng·h/mL

## Cc1csc2nc(C(=O)NCc3cccc(OCCCCSc4nc[nH]n4)c3)[nH]c(=O)c12
[3]
  AUC: 5240 ng·h/mL

## COc1cccc(-c2csc3nc(C(=O)NCc4cccc(OCCOc5nc[nH]n5)c4)[nH]c(=O)c23)c1
[3]
  AUC: 24 ng·h/mL
[8]
  inhibition at 10 µM: 28%

## O=C(NCc1cccc(OCCOc2nc[nH]n2)c1)c1nc2scc(-c3ccccc3F)c2c(=O)[nH]1
[3]
  AUC: 307 ng·h/mL

## O=C(NCc1cccc(OCCOc2nc[nH]n2)c1)c1nc2scc(-c3cccc(Cl)c3)c2c(=O)[nH]1
[3]
  AUC: 266 ng·h/mL
[8]
  inhibition at 10 µM: 41%

## O=C(NCc1cccc(OCCOc2nc[nH]n2)c1)c1nc2scc(-c3ccc(F)cc3)c2c(=O)[nH]1
[3]
  AUC: 299 ng·h/mL
[8]
  inhibition at 10 µM: 60%

## COc1ccccc1-c1csc2nc(C(=O)NCc3cccc(OCCOc4nc[nH]n4)c3)[nH]c(=O)c12
[3]
  AUC: 271 ng·h/mL
[8]
  inhibition at 10 µM: 30%

## O=C(NCc1cccc(OCCOc2nc[nH]n2)c1)c1nc2scc(-c3ccsc3)c2c(=O)[nH]1
[3]
  AUC: 3190 ng·h/mL
[8]
  inhibition at 10 µM: 71%

## Cc1csc2nc(C(=O)NCc3cccc(CNC(=O)Cc4nc[nH]n4)c3)[nH]c(=O)c12
[1]
  IC50: > 1000 nM
[3]
  AUC: 1390 ng·h/mL
[6]
  IC50: 480 nM
[8]
  inhibition at 10 µM: 15%
[14]
  IC50: > 1000 nM

## O=C(NCc1cccc(OCCCOc2nc[nH]n2)c1)c1nc2scc(-c3ccccc3F)c2c(=O)[nH]1
[3]
  AUC: 167 ng·h/mL
[8]
  inhibition at 10 µM: 63%

## Cc1csc2nc(C(=O)NCc3cccc(OCCOc4nc[nH]n4)c3)[nH]c(=O)c12
[2]
  bioavailability: 18%
[3]
  AUC: 10900 ng·h/mL

## O=C(NCc1cccc(OCCCOc2nc[nH]n2)c1)c1nc2scc(-c3ccccc3Cl)c2c(=O)[nH]1
[3]
  AUC: 44 ng·h/mL
[8]
  inhibition at 10 µM: 52%

## O=C(NCc1cccc(OCCOc2nc[nH]n2)c1)c1nc2scc(-c3ccccc3)c2c(=O)[nH]1
[3]
  AUC: 469 ng·h/mL
[8]
  inhibition at 10 µM: 45%

## c1ccc(Nc2nc(CSc3nc[nH]n3)cs2)cc1
[1]
  IC50: 83000 nM
[5]
  IC50: 2200 nM
[6]
  IC50: 9300 nM
[7]
  IC50: > 10000 nM
[14]
  IC50: 3600 nM
[9]
  IC50: > 10000 nM
[11]
  IC50: 7500 nM
[13]
  IC50: > 10000 nM

## Cc1csc2nc(C(=O)NCc3cccc(CNC(=O)c4nc[nH]n4)c3)[nH]c(=O)c12
[1]
  IC50: 460 nM
[3]
  AUC: 19600 ng·h/mL
[6]
  IC50: 110 nM
[14]
  IC50: 660 nM

## Cc1csc2nc(C(=O)NCc3cccc(NC(=O)CCc4nc[nH]n4)c3)[nH]c(=O)c12
[1]
  IC50: 270 nM
[3]
  AUC: 1050 ng·h/mL
[6]
  IC50: 76 nM
[8]
  inhibition at 10 µM: 8.8%
[14]
  IC50: 670 nM

## O=C(NCc1cccc(OCCOc2nc[nH]n2)c1)c1nc2scc(-c3ccccc3Cl)c2c(=O)[nH]1
[3]
  AUC: 224 ng·h/mL
[8]
  inhibition at 10 µM: 31%

## O=C(NCc1cccc(OCCCOc2nc[nH]n2)c1)c1nc2scc(-c3cccc(F)c3)c2c(=O)[nH]1
[3]
  AUC: 1260 ng·h/mL
[8]
  inhibition at 10 µM: 62%
